Measurements: patent US7435727B2, “Method for isolating an intestinal cholesterol binding protein” (Sanofi-Aventis Deutschland GmbH, priority 2002, dated 2008)

Assays:
[1] = tested on: intestinal cholesterol absorption; assay: Inhibition of intestinal cholesterol absorption (modified Zilversmit/Hughes method); type: in vivo; conditions: NMRI mice, application of the biotin-tagged photoaffinity label
Protocol: Intestinal cholesterol absorption was determined by a modification of the Zilversmit/Hughes method. Male NMRI mice (Charles River Deutschland GmbH, Salzfeld, Germany) kept on regular chow (Altronin®, Lage, Germany) were starved for 12 hours. Then, 0.5 ml of a solution of 0.5% methylcellulose/5% Solutol (BASF, Ludwigshafen, Germany) as vehicle with or without 3 mg of the respective cholesterol absorption inhibitor were applied by gavage to each animal followed by 0.25 ml of Intralipid® (Pharmacia & Upjohn, Erlangen, Germany) solution containing 0.24 μCi [^14C]cholesterol and 0.25 μCi [^3H]sitosterol. The animals (five mice per group) were kept on metabolism cages and feces were collected. After 24 hours the animals were killed and the radioactivity in the feces and the liver was determined by combustion analysis.
(§1) For a one-step purification of the target-protein for cholesterol absorption inhibitors we have coupled the biotin-containing photolabile group N-(biotinyl)-4-azidophenyl alanine via a spacer to the para-position of the N-phenyl or benzylamino ring of 2-azetidinone cholesterol absorption inhibitors.

[2] = tested on: 145 kDa binding protein for cholesterol absorption inhibitors; assay: Photoaffinity labeling with biotin-tagged C-4 and extraction with streptavidin beads; design: species or system rabbit
Protocol: 10 Samples of rabbit ileal brush border membrane vesicles (200 µg of protein) were incubated with 200 μM of the biotin-tagged cholesterol inhibitor C-4 in 10 mM Tris/Hepes buffer (pH 7.4)/100 mM NaCl/100 mM mannitol for 30 min in the dark at 20° C. followed by irradiation at 254 nm for 30 sec in a Rayonet RPR-100 photochemical reactor equipped with 4 RPR 2537 Å-lamps. After collecting, the vesicles were washed 3 times with 2 ml Tris/Hepes buffer (pH 7.4)/300 mM mannitol. The final pellet was suspended in 2 ml of “solubilization buffer” for 1 hour at 4° C. After centrifugation, the clear supernatant was mixed with 0.5 ml of streptavidin-agarose beads and kept under stirring at 4° C. for 2 hours. After centrifugation, the beads were incubated with 2 ml 10 mM Tris/Hepes buffer (pH 7.4)/300 mM mannitol/1% n-octylglucoside/4 mM PMSF/4 mM iodacetamide/4 mM EDTA/for 10 min at 4° C. followed by centrifugation. After repeating this procedure twice, proteins were eluted from the streptavidin-agarose beads with 3 portions a 2 ml of the above buffer containing 5 mM biotin. From all eluates aliquots were removed for the determination of the enzymatic activity of aminopeptidase N and sucrase and for analysis by SDS-PAGE. For final purification the biotin eluates containing the covalently modified 145 kDa binding protein for cholesterol absorption inhibitors was achieved by preparative SDS gel electrophoresis as described above.
Rabbit small intestinal BBMV were incubated with 200 μM of C-4 and crosslinking was achieved by ultraviolet irradiation at 254 nm. After solubilization the covalently modified proteins containing the biotin-tagged 2-azetidinone cholesterol absorption inhibitors were extracted with streptavidin-beads. After intensive washing bound proteins were eluted with a 10 mM solution of biotin and analyzed by SDS-PAGE. […] Therefore, the 145 kDa binding protein could only be purified from those anatomical sites where intestinal cholesterol absorption occurs, the duodenum, jejunum and ileum. […]

[3] = tested on: 145 kDa binding protein for cholesterol absorption inhibitors; assay: Photoaffinity labeling of small intestinal BBMV with [3H]C-1 in the presence of competitor; conditions: rabbit small intestinal BBMV, increasing concentrations of competitor
Protocol: 8 Samples of rabbit ileal brush border membrane vesicles (250 μg of protein) were incubated with 66 nM (0.3 μCi) of [^3H]C-1 in 10 mM Tris/Hepes buffer (pH 7.4)/100 mM NaCl/100 mM mannitol for 30 min at 20° C. in the dark. After irradiation for 30 sec at 254 nm in a Rayonet RPR 100 photochemical reactor equipped with 4 RPR 2537 Å lamps (The Southern Ultraviolet Company, Hamden, Conn., USA) the samples were collected and after centrifugation the membrane vesicles were resuspended in 2 ml 10 mM Tris/Hepes buffer (pH 7.4)/300 mM mannitol and centrifugated after 20 min at 20° C. This procedure was repeated three times. The resulting pellet was solubilized with 2 ml “solubilization buffer”. After centrifugation, a 40 μl aliquot of the supernatant was removed and analyzed by SDS PAGE and subsequent slicing of the gel for incorporation of radioactivity into membrane proteins.
as §1

Row | Compound | intestinal cholesterol absorption [1] | 145 kDa protein retarded by streptavidin beads after labeling of membranes from other organs ([2]; BBMV from stomach, cecum, colon, rectum, kidney, liver or adipocytes) | proteins retained by the streptavidin-beads after crosslinking ([2]; rabbit small intestinal BBMV, 200 μM C-4, ultraviolet irradiation at 254 nm, SDS-PAGE) | extent of labeling of the 145 kDa-protein by [3H]C-1 [3] | amount of 145 kDa protein extractable with streptavidin beads ([2]; competitor present during photolabeling with C-4, 200 μM for cholesterol absorption inhibitors)
1 | COc1ccc(C2C(CC[C@H](O)c3ccccc3)C(=O)N2c2ccc(NC(=O)CCCCNC(=O)C(Cc3ccc(N=[N+]=[N-])cc3)NC(=O)CCCCC3SCC4NC(=O)NC43)cc2)cc1 (some centres unmarked) [C-4, 5-(2-Oxo-hexahydro-thieno[3,4-d]imidazol-6-yl)-pentanoic acid-[2-(4-azido-phenyl)-1-(4-{4-[3-(3-hydroxy-3-phenyl-propyl)-2-(4-methoxy-phenyl)4-oxo-azetidin-1-yl]-phenylcarbamoyl}-butylcarbamoyl)-ethyl]-amid] | dose-dependently inhibited | no 145 kDa protein was retarded by streptavidin beads | Predominantly one protein of Mr 145 kDa was retained | concentration-dependent decrease | –
2 | O=C1[C@H](CC[C@H](O)c2ccc(F)cc2)[C@@H](c2ccc(O)cc2)N1c1ccc(F)cc1 [Ezetimibe, reference compound] | – | – | – | – | reduced
